Laboratory results published in the NIST ThermoML archive (doi:10.1021/je900598y).
Numbers after ± are expanded uncertainties.

Key:
[1] = excess molar enthalpy (molar enthalpy of mixing); xn = mol fraction of the nth substance listed; conditions: 298.15 K, Liquid, Calvet calorimetry
[2] = 298.15 K; 101.33 kPa; Liquid

CCCCC(=O)OC(=O)CCCC [pentanoic anhydride] + CCCCCCCCCCCCCC
[1]
Conditions | excess molar enthalpy [kcal/mol]
x1 = 0.0319 | 0.0605 ± 0.00086
x1 = 0.0618 | 0.11 ± 0.00146
x1 = 0.0899 | 0.149 ± 0.00191
x1 = 0.1164 | 0.182 ± 0.00232
x1 = 0.1414 | 0.208 ± 0.00263
x1 = 0.165 | 0.232 ± 0.00287
x1 = 0.1873 | 0.251 ± 0.00311
x1 = 0.2126 | 0.271 ± 0.00335
x1 = 0.2363 | 0.287 ± 0.00359
x1 = 0.2587 | 0.3 ± 0.00382
x1 = 0.2798 | 0.311 ± 0.00382
x1 = 0.2997 | 0.32 ± 0.00406
x1 = 0.3186 | 0.328 ± 0.00406
x1 = 0.3364 | 0.335 ± 0.0043
x1 = 0.3569 | 0.342 ± 0.0043
x1 = 0.3714 | 0.35 ± 0.0043
x1 = 0.381 | 0.352 ± 0.0043
x1 = 0.3911 | 0.355 ± 0.00454
x1 = 0.402 | 0.357 ± 0.00454
x1 = 0.413 | 0.359 ± 0.00454
x1 = 0.4294 | 0.36 ± 0.00454
x1 = 0.4312 | 0.362 ± 0.00454
x1 = 0.4416 | 0.362 ± 0.00454
x1 = 0.4524 | 0.363 ± 0.00454
x1 = 0.4638 | 0.364 ± 0.00454
x1 = 0.4757 | 0.364 ± 0.00454
x1 = 0.4883 | 0.364 ± 0.00454
x1 = 0.5015 | 0.363 ± 0.00454
x1 = 0.5127 | 0.362 ± 0.00454
x1 = 0.5245 | 0.361 ± 0.00454
x1 = 0.5369 | 0.36 ± 0.00454
x1 = 0.5498 | 0.357 ± 0.00454
x1 = 0.5633 | 0.355 ± 0.00454
x1 = 0.5776 | 0.351 ± 0.0043
x1 = 0.5926 | 0.348 ± 0.0043
x1 = 0.6049 | 0.344 ± 0.0043
x1 = 0.6178 | 0.34 ± 0.0043
x1 = 0.6313 | 0.335 ± 0.0043
x1 = 0.6454 | 0.33 ± 0.00406
x1 = 0.6601 | 0.324 ± 0.00406
x1 = 0.6754 | 0.317 ± 0.00406
x1 = 0.6916 | 0.308 ± 0.00382
x1 = 0.7052 | 0.301 ± 0.00382
x1 = 0.7194 | 0.293 ± 0.00359
x1 = 0.7341 | 0.284 ± 0.00359
x1 = 0.7495 | 0.274 ± 0.00359
x1 = 0.7655 | 0.263 ± 0.00335
x1 = 0.7822 | 0.25 ± 0.00311
x1 = 0.7997 | 0.236 ± 0.00311
x1 = 0.8145 | 0.224 ± 0.00287
x1 = 0.8299 | 0.21 ± 0.00263
x1 = 0.8459 | 0.195 ± 0.00239
x1 = 0.8625 | 0.178 ± 0.00229
x1 = 0.8798 | 0.16 ± 0.00206
x1 = 0.8978 | 0.14 ± 0.00182
x1 = 0.9133 | 0.121 ± 0.00158
x1 = 0.9294 | 0.101 ± 0.00134
x1 = 0.9461 | 0.0789 ± 0.00108
x1 = 0.9634 | 0.0549 ± 0.000789
x1 = 0.9814 | 0.0287 ± 0.000478

CCCCC(=O)OC(=O)CCCC [pentanoic anhydride] + CCCCCCCCCCCCCCCC
[1]
Conditions | excess molar enthalpy [kcal/mol]
x1 = 0.0353 | 0.0694 ± 0.000956
x1 = 0.0683 | 0.125 ± 0.00165
x1 = 0.099 | 0.169 ± 0.00217
x1 = 0.1278 | 0.205 ± 0.00263
x1 = 0.1567 | 0.236 ± 0.00311
x1 = 0.1837 | 0.263 ± 0.00335
x1 = 0.209 | 0.284 ± 0.00359
x1 = 0.2329 | 0.302 ± 0.00382
x1 = 0.2553 | 0.317 ± 0.00406
x1 = 0.277 | 0.33 ± 0.00406
x1 = 0.2993 | 0.342 ± 0.0043
x1 = 0.3202 | 0.352 ± 0.0043
x1 = 0.3399 | 0.36 ± 0.00454
x1 = 0.3619 | 0.367 ± 0.00454
x1 = 0.3825 | 0.372 ± 0.00454
x1 = 0.4019 | 0.377 ± 0.00478
x1 = 0.42 | 0.38 ± 0.00478
x1 = 0.4371 | 0.382 ± 0.00478
x1 = 0.4532 | 0.383 ± 0.00478
x1 = 0.4705 | 0.384 ± 0.00478
x1 = 0.4866 | 0.384 ± 0.00478
x1 = 0.5018 | 0.383 ± 0.00478
x1 = 0.5161 | 0.382 ± 0.00478
x1 = 0.5296 | 0.381 ± 0.00478
x1 = 0.5424 | 0.379 ± 0.00478
x1 = 0.5564 | 0.377 ± 0.00478
x1 = 0.5695 | 0.374 ± 0.00478
x1 = 0.5819 | 0.371 ± 0.00454
x1 = 0.5935 | 0.368 ± 0.00454
x1 = 0.6046 | 0.365 ± 0.00454
x1 = 0.6168 | 0.363 ± 0.00454
x1 = 0.6292 | 0.358 ± 0.00454
x1 = 0.6421 | 0.353 ± 0.0043
x1 = 0.6556 | 0.348 ± 0.0043
x1 = 0.6696 | 0.342 ± 0.0043
x1 = 0.6842 | 0.335 ± 0.0043
x1 = 0.697 | 0.328 ± 0.00406
x1 = 0.7103 | 0.321 ± 0.00406
x1 = 0.7242 | 0.313 ± 0.00406
x1 = 0.7386 | 0.303 ± 0.00382
x1 = 0.7536 | 0.293 ± 0.00359
x1 = 0.7692 | 0.282 ± 0.00359
x1 = 0.7832 | 0.271 ± 0.00335
x1 = 0.7977 | 0.259 ± 0.00335
x1 = 0.8128 | 0.246 ± 0.00311
x1 = 0.8285 | 0.231 ± 0.00287
x1 = 0.8448 | 0.215 ± 0.00263
x1 = 0.8591 | 0.199 ± 0.00263
x1 = 0.8739 | 0.183 ± 0.00234
x1 = 0.8892 | 0.164 ± 0.0021
x1 = 0.905 | 0.145 ± 0.00186
x1 = 0.9214 | 0.123 ± 0.0016
x1 = 0.9361 | 0.103 ± 0.00136
x1 = 0.9513 | 0.0797 ± 0.00108
x1 = 0.967 | 0.0552 ± 0.000789
x1 = 0.9832 | 0.0282 ± 0.000454

CCCCCCCCCCCCCC [tetradecane]
Conditions | mass density [kg/m3]
[2] | 760.2 ± 0.62
